Assays:
Plasminogen = Plasminogen (Homo sapiens, UniProt P00747); assay: Inhibition of plasmin
Jurkat = assay: Cytotoxicity against human Jurkat cells; assay type: functional, cell-based

Plasminogen, sequence (P00747 97-580 limits assumed): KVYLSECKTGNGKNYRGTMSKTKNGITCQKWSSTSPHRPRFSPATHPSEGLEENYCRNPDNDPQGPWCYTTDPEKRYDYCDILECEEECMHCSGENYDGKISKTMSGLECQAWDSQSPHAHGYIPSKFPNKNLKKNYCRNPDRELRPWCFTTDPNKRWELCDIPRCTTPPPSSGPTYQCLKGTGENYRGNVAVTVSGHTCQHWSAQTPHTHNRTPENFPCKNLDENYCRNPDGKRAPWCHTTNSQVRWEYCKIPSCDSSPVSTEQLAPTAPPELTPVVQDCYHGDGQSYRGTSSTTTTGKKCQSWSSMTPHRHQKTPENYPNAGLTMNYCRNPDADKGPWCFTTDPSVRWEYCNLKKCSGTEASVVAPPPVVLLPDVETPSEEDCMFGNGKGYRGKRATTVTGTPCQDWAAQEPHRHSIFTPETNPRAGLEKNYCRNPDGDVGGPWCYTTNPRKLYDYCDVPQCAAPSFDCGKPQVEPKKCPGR
Plasminogen, sequence (P00747 581-810 limits assumed): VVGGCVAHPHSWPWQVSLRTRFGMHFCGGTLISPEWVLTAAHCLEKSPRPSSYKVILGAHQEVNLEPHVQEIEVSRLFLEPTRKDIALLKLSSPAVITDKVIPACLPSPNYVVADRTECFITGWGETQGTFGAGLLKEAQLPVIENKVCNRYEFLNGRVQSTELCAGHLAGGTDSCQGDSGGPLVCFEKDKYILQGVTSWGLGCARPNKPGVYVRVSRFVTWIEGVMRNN

SMILES | IC50 (Plasminogen) | IC50 (Jurkat)
COc1cc(O)c2c(=O)cc(-c3ccc(O)c(O)c3)oc2c1 | 2300 nM | –
C/C1=C\C(=O)[C@@H](C(C)C)C[C@@H](OC(=O)[C@]2(C)O[C@@H]2C)[C@](C)(O)C(=O)CC1 | – | 26200 nM
COc1cc(O)c2c(=O)c(OC)c(-c3ccc(O)c(O)c3)oc2c1 | 1500 nM | –
C=C1CC[C@@]2(O)[C@H]1C(=O)[C@@H](C(C)C)C[C@@H](OC(=O)/C(C)=C\C)[C@]2(C)O | – | > 70000 nM
CC(=O)N[C@@H](CC(C)C)C(=O)N[C@@H](CC(C)C)C(=O)N[C@H](C=O)CCCNC(=N)N [LEUPEPTIN] | 1200 nM | –

— ChEMBL document CHEMBL1158716, “Sesquiterpenoids and plasmin-inhibitory flavonoids from Blumea balsamifera” (J Nat Prod, 2005)
